# Values of other authors in US20200215024A1, “CANNABINOID FORMULATIONS FOR TREATING ALCOHOL HANGOVER” (Replennabis LLC, priority 2019, published 2020).
# Conditions: in vivo
smiles,measurement,value
"CCCCCc1cc(O)c2c(c1)OC(C)(C)[C@@H]1CCC(C)=C[C@@H]21 [THC, tetrahydrocannabinol]",oral bioavailability,less than 8%
